# Where a SMILES comes first, the peptide text is derived from it. [ ]: non-standard residue; d: D form. The star is where a group is joined. NHCH2CH2OH = OCCN*; For = O=C*
# Experiments:
# [1] = H+/Na+ transport assay of bead-derived peptides (one-point); format: biochemical; design: key: relative activity; mean of two control wells = 1.00; settings: bead-derived peptide solution, EYPC/EYPG LUVs;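 note: relative to parent gramicidin A activity set to 1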
# In short: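 H+/Na+ transport is monitored through pyranine fluorescence in freshly extruded LUVs after a 30-min room-temperature vortex with each library peptide at a single concentration. Signals are normalized to detergent (Triton X-100) and untreated controls.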
# [2] = cell viability/%
# In short: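 Peptide stocks diluted 250× in growth medium; P388 cells 1 × 10^4 cells/mL final; 37 °C, 5% CO2, 92 h. WST-1 + 1-methoxy PMS, 4 h, A415. Output: % viability.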
# [3] = test system: Streptococcus pyogenes SSI-9; assay: Antibacterial activity assay of bead-derived peptides (three concentrations); format: cell-based; design: key: +++: inhibition by the 640-fold diluted peptide solution; ++: inhibition by the 160-fold diluted solution; +: inhibition by the 40-fold diluted solution; -: no inhibition; settings: S. pyogenes, bead-derived peptide solution, three concentrations
# In short: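 First, each peptide stock was diluted 4- and 16-fold in DMSO; next, the three solutions were mixed with S. pyogenes SSI-9 suspension (2 × 10^5 CFU) in cation-adjusted Mueller Hinton Broth plus 5% laked horse blood; finally, plates stood 18 h at 37 °C before checking for grown-cell precipitation.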
SMILES,H+/Na+ transport activity normalized against the value of 1 (1.00) [1],viability [2] [%],antibacterial activity [3]
CC(C)C[C@@H](NC(=O)[C@H](C)NC(=O)[C@H](NC(=O)[C@H](C)NC(=O)CNC(=O)[C@@H](NC=O)C(C)C)[C@H](C)O)C(=O)N[C@H](C(=O)N[C@H](CC(C)C)C(=O)N[C@@H](Cc1c[nH]c2ccccc12)C(=O)N[C@@H](C(=O)N[C@@H](Cc1c[nH]c2ccccc12)C(=O)N[C@H](CC(C)C)C(=O)N[C@@H](Cc1c[nH]c2ccccc12)C(=O)N[C@H](CC(C)C)C(=O)N[C@@H](Cc1c[nH]c2ccccc12)C(=O)NCCO)[C@H](C)O)C(C)C [compound 131] (For-VGA[dT]A[dL]V[dL]W[dT]W[dL]W[dL]W-NHCH2CH2OH),1.10,100,-
CC(C)C[C@@H](NC(=O)[C@H](C)NC(=O)CNC(=O)[C@@H](NC=O)C(C)C)C(=O)N[C@@H](C)C(=O)N[C@@H](C(=O)N[C@H](C(=O)N[C@@H](C(=O)N[C@@H](Cc1c[nH]c2ccccc12)C(=O)N[C@H](CC(C)C)C(=O)N[C@@H](Cc1c[nH]c2ccccc12)C(=O)N[C@@H](C(=O)N[C@@H](Cc1c[nH]c2ccccc12)C(=O)N[C@H](CC(C)C)C(=O)N[C@@H](Cc1c[nH]c2ccccc12)C(=O)NCCO)C(C)C)C(C)C)C(C)C)[C@H](C)O [compound 5555] (For-VGA[dL]A[dT]V[dV]W[dL]W[dV]W[dL]W-NHCH2CH2OH),1.22,100,-
CC(C)C[C@@H](NC(=O)[C@H](C)NC(=O)CNC(=O)[C@@H](NC=O)C(C)C)C(=O)N[C@@H](C)C(=O)N[C@@H](C(=O)N[C@H](C(=O)N[C@@H](C(=O)N[C@@H](Cc1c[nH]c2ccccc12)C(=O)N[C@H](CC(C)C)C(=O)N[C@@H](Cc1c[nH]c2ccccc12)C(=O)N[C@@H](C(=O)N[C@@H](Cc1c[nH]c2ccccc12)C(=O)N[C@@H](C(=O)N[C@@H](Cc1c[nH]c2ccccc12)C(=O)NCCO)C(C)C)[C@H](C)O)C(C)C)C(C)C)C(C)C [compound 87] (For-VGA[dL]A[dV]V[dV]W[dL]W[dT]W[dV]W-NHCH2CH2OH),1.12,100,++
CC(C)C[C@@H](NC(=O)[C@H](C)NC(=O)CNC(=O)[C@@H](NC=O)C(C)C)C(=O)N[C@@H](C)C(=O)N[C@@H](C(=O)N[C@H](C(=O)N[C@H](CC(C)C)C(=O)N[C@@H](Cc1c[nH]c2ccccc12)C(=O)N[C@H](CC(C)C)C(=O)N[C@@H](Cc1c[nH]c2ccccc12)C(=O)N[C@H](CC(C)C)C(=O)N[C@@H](Cc1c[nH]c2ccccc12)C(=O)N[C@H](CC(C)C)C(=O)N[C@@H](Cc1c[nH]c2ccccc12)C(=O)NCCO)C(C)C)C(C)C [compound 8397] (For-VGA[dL]A[dV]V[dL]W[dL]W[dL]W[dL]W-NHCH2CH2OH),1.12,0,+
CNC(=O)C[C@@H](NC(=O)[C@H](Cc1c[nH]c2ccccc12)NC(=O)[C@H](NC(=O)[C@@H](NC(=O)[C@@H](CC(C)C)NC(=O)[C@H](C)NC(=O)[C@H](NC(=O)[C@H](C)NC(=O)CNC(=O)[C@@H](NC=O)C(C)C)C(C)C)C(C)C)C(C)C)C(=O)N[C@@H](Cc1c[nH]c2ccccc12)C(=O)N[C@H](CC(C)C)C(=O)N[C@@H](Cc1c[nH]c2ccccc12)C(=O)N[C@H](CC(C)C)C(=O)N[C@@H](Cc1c[nH]c2ccccc12)C(=O)NCCO [compound 5838] (For-VGA[dV]A[dL]V[dV]W[dD](NHMe)W[dL]W[dL]W-NHCH2CH2OH),1.12,100,-
CC(C)C[C@@H](NC(=O)[C@H](C)NC(=O)CNC(=O)[C@@H](NC=O)C(C)C)C(=O)N[C@@H](C)C(=O)N[C@H](CC(C)C)C(=O)N[C@H](C(=O)N[C@H](CC(C)C)C(=O)N[C@@H](Cc1c[nH]c2ccccc12)C(=O)N[C@H](CC(C)C)C(=O)N[C@@H](Cc1c[nH]c2ccccc12)C(=O)N[C@@H](C(=O)N[C@@H](Cc1c[nH]c2ccccc12)C(=O)N[C@H](CC(C)C)C(=O)N[C@@H](Cc1c[nH]c2ccccc12)C(=O)NCCO)[C@H](C)O)C(C)C [compound 1888] (For-VGA[dL]A[dL]V[dL]W[dL]W[dT]W[dL]W-NHCH2CH2OH),1.16,100,-
CC(C)C[C@@H](NC(=O)[C@H](C)NC(=O)CNC(=O)[C@@H](NC=O)C(C)C)C(=O)N[C@@H](C)C(=O)N[C@@H](C(=O)N[C@H](C(=O)N[C@H](CC(C)C)C(=O)N[C@@H](Cc1c[nH]c2ccccc12)C(=O)N[C@@H](C(=O)N[C@@H](Cc1c[nH]c2ccccc12)C(=O)N[C@@H](C(=O)N[C@@H](Cc1c[nH]c2ccccc12)C(=O)N[C@@H](C(=O)N[C@@H](Cc1c[nH]c2ccccc12)C(=O)NCCO)C(C)C)C(C)C)C(C)C)C(C)C)[C@H](C)O [compound 3733] (For-VGA[dL]A[dT]V[dL]W[dV]W[dV]W[dV]W-NHCH2CH2OH),1.11,100,-
CC(C)C[C@@H](NC(=O)[C@H](C)NC(=O)[C@H](NC(=O)[C@H](C)NC(=O)CNC(=O)[C@@H](NC=O)C(C)C)[C@H](C)O)C(=O)N[C@H](C(=O)N[C@H](CC(C)C)C(=O)N[C@@H](Cc1c[nH]c2ccccc12)C(=O)N[C@@H](C(=O)N[C@@H](Cc1c[nH]c2ccccc12)C(=O)N[C@H](CC(C)C)C(=O)N[C@@H](Cc1c[nH]c2ccccc12)C(=O)N[C@H](CC(C)C)C(=O)N[C@@H](Cc1c[nH]c2ccccc12)C(=O)NCCO)C(C)C)C(C)C [compound 4687] (For-VGA[dT]A[dL]V[dL]W[dV]W[dL]W[dL]W-NHCH2CH2OH),1.04,94.4,-
CC(C)C[C@@H](NC(=O)[C@H](Cc1c[nH]c2ccccc12)NC(=O)[C@H](NC(=O)[C@H](Cc1c[nH]c2ccccc12)NC(=O)[C@H](NC(=O)[C@H](Cc1c[nH]c2ccccc12)NC(=O)[C@@H](CC(C)C)NC(=O)[C@@H](NC(=O)[C@H](NC(=O)[C@H](C)NC(=O)[C@H](NC(=O)[C@H](C)NC(=O)CNC(=O)[C@@H](NC=O)C(C)C)C(C)C)[C@H](C)O)C(C)C)C(C)C)C(C)C)C(=O)N[C@@H](Cc1c[nH]c2ccccc12)C(=O)NCCO [compound 7320] (For-VGA[dV]A[dT]V[dL]W[dV]W[dV]W[dL]W-NHCH2CH2OH),1.04,58.5,-
CNC(=O)C[C@@H](NC(=O)[C@H](Cc1c[nH]c2ccccc12)NC(=O)[C@H](NC(=O)[C@H](Cc1c[nH]c2ccccc12)NC(=O)[C@H](NC(=O)[C@H](Cc1c[nH]c2ccccc12)NC(=O)[C@@H](CC(C)C)NC(=O)[C@@H](NC(=O)[C@@H](CC(C)C)NC(=O)[C@H](C)NC(=O)[C@H](NC(=O)[C@H](C)NC(=O)CNC(=O)[C@@H](NC=O)C(C)C)C(C)C)C(C)C)C(C)C)C(C)C)C(=O)N[C@@H](Cc1c[nH]c2ccccc12)C(=O)NCCO [compound 3866] (For-VGA[dV]A[dL]V[dL]W[dV]W[dV]W[dD](NHMe)W-NHCH2CH2OH),1.31,100,-
CNC(=O)C[C@@H](NC(=O)[C@@H](NC(=O)[C@H](NC(=O)[C@H](C)NC(=O)[C@@H](CC(C)C)NC(=O)[C@H](C)NC(=O)CNC(=O)[C@@H](NC=O)C(C)C)C(C)C)C(C)C)C(=O)N[C@@H](Cc1c[nH]c2ccccc12)C(=O)N[C@@H](C(=O)N[C@@H](Cc1c[nH]c2ccccc12)C(=O)N[C@H](CC(C)C)C(=O)N[C@@H](Cc1c[nH]c2ccccc12)C(=O)N[C@H](CC(C)C)C(=O)N[C@@H](Cc1c[nH]c2ccccc12)C(=O)NCCO)C(C)C [compound 2118] (For-VGA[dL]A[dV]V[dD](NHMe)W[dV]W[dL]W[dL]W-NHCH2CH2OH),1.26,100,-
CC(C)C[C@@H](NC(=O)[C@H](Cc1c[nH]c2ccccc12)NC(=O)[C@@H](CC(C)C)NC(=O)[C@H](Cc1c[nH]c2ccccc12)NC(=O)[C@H](NC(=O)[C@H](Cc1c[nH]c2ccccc12)NC(=O)[C@H](NC(=O)[C@@H](NC(=O)[C@H](NC(=O)[C@H](C)NC(=O)[C@H](NC(=O)[C@H](C)NC(=O)CNC(=O)[C@@H](NC=O)C(C)C)C(C)C)C(C)C)C(C)C)C(C)C)C(C)C)C(=O)N[C@@H](Cc1c[nH]c2ccccc12)C(=O)NCCO [compound 1119] (For-VGA[dV]A[dV]V[dV]W[dV]W[dL]W[dL]W-NHCH2CH2OH),1.10,100,-
CC(C)C[C@@H](NC(=O)[C@H](C)NC(=O)CNC(=O)[C@@H](NC=O)C(C)C)C(=O)N[C@@H](C)C(=O)N[C@H](CC(C)C)C(=O)N[C@H](C(=O)N[C@H](CC(C)C)C(=O)N[C@@H](Cc1c[nH]c2ccccc12)C(=O)N[C@H](CC(C)C)C(=O)N[C@@H](Cc1c[nH]c2ccccc12)C(=O)N[C@@H](C(=O)N[C@@H](Cc1c[nH]c2ccccc12)C(=O)N[C@@H](C(=O)N[C@@H](Cc1c[nH]c2ccccc12)C(=O)NCCO)C(C)C)[C@H](C)O)C(C)C [compound 2346] (For-VGA[dL]A[dL]V[dL]W[dL]W[dT]W[dV]W-NHCH2CH2OH),1.03,100,+

# — paper PMC7531004, “Discovery of gramicidin A analogues with altered activities by multidimensional screening of a one-bead-one-compound library” (Nature Communications, 2020)
